Measured values reported in patent US11007270B2, “Polymer-semaxanib moiety conjugates” (Nektar Therapeutics, priority 2010, dated 2021).
Where “and” joins values, the source holds several entries; their conditions need not be identical. Identical values can stand only once. Like-named read-outs stand apart in the source and are kept apart here.

Key:
c-Kit = c-Kit (Homo sapiens, UniProt P10721); assay: c-Kit tyrosine kinase inhibition, Caliper screening (fluorescent substrate phosphorylation, electrophoretic separation); assay type: biochemical; conditions: for IC50: averages of replicate wells; for c-Kit Fold: fold of IC50 relative to sunitinib
RET = RET (Homo sapiens, UniProt P07949); assay: RET kinase inhibition, Caliper screening (fluorescent substrate phosphorylation, electrophoretic separation); conditions: for RET Fold: fold of IC50 relative to sunitinib
VEGFR-2 = VEGFR-2 (Homo sapiens, UniProt P35968); assay: VEGFR-2 kinase inhibition, Caliper screening (fluorescent substrate phosphorylation, electrophoretic separation); conditions: for VEGFR-2 Fold: fold of IC50 relative to sunitinib
[1] = concentration 1.0E−05 (unit not given)
[2] = concentration 1.0E−06 (unit not given)
[3] = concentration 1.0E−07 (unit not given)
[4] = concentration 1.0E−08 (unit not given)
[5] = concentration 1.0E−09 (unit not given)
[6] = concentration 1.0E−10 (unit not given)
[7] = concentration 3.0E−05 (unit not given)
[8] = concentration 3.0E−06 (unit not given)
[9] = concentration 3.0E−07 (unit not given)
[10] = concentration 3.0E−08 (unit not given)
[11] = concentration 3.0E−09 (unit not given)
[12] = concentration 3.0E−10 (unit not given)

Sequence of VEGFR-2 (P35968 20-1356, species assumed): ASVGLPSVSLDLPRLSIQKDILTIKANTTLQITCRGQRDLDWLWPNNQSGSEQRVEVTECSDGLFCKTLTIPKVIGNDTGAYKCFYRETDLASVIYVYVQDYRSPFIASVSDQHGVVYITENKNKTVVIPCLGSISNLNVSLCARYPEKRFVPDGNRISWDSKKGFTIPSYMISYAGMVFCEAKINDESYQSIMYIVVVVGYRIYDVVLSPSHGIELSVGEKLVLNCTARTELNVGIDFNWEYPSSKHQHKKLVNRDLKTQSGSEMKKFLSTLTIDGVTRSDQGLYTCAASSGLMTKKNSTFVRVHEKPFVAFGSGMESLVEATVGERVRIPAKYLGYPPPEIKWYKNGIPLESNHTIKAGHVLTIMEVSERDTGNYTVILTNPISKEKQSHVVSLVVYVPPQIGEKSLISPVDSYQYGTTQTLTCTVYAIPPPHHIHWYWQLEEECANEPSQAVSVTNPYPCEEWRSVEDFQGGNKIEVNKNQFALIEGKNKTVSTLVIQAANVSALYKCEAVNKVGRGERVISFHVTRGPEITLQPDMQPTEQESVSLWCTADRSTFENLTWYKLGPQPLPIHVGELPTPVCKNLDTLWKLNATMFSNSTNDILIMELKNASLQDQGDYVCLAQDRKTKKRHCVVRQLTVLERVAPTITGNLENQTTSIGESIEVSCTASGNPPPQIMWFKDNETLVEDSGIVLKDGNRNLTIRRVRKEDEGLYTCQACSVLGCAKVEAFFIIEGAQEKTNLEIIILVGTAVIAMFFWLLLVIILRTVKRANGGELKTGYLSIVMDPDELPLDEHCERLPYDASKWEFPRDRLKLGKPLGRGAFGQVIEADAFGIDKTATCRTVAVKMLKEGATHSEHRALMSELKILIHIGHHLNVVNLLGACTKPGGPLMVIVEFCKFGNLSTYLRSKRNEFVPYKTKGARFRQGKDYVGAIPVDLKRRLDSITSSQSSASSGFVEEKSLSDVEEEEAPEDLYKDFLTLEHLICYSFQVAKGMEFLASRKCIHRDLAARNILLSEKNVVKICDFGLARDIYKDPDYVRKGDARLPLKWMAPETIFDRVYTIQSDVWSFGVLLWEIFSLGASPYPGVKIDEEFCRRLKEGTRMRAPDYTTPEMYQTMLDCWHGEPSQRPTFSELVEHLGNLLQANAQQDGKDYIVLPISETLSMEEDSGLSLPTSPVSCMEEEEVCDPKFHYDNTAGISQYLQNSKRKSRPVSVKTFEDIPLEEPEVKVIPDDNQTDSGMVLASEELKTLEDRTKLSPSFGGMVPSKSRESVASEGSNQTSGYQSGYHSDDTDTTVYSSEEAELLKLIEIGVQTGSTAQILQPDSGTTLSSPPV
Sequence of c-Kit (P10721 26-976): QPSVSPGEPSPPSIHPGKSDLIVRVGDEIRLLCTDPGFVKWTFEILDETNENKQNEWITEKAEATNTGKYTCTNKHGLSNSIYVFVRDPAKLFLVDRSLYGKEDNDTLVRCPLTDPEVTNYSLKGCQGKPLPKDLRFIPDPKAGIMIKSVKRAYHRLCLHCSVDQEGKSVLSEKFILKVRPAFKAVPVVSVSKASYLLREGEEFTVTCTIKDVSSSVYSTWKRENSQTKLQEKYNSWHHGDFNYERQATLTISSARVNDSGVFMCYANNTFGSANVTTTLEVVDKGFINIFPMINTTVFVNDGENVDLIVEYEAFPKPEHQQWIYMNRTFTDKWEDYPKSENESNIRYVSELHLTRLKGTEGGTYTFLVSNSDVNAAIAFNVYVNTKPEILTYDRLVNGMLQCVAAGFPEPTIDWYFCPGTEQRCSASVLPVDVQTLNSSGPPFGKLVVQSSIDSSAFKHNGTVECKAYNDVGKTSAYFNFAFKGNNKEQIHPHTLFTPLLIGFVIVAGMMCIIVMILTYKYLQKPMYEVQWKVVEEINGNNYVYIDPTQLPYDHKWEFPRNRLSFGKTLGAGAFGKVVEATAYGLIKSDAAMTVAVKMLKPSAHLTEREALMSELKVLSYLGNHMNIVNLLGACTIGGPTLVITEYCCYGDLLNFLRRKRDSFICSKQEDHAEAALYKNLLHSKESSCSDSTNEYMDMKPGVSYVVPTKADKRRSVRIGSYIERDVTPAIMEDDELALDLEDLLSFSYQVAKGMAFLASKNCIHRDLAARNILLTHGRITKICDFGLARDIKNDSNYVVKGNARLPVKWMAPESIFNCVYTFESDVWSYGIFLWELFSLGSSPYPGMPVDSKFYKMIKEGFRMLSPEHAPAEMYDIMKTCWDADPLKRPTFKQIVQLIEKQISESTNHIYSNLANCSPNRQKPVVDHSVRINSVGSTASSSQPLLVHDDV
Sequence of RET (P07949 29-1114, species assumed): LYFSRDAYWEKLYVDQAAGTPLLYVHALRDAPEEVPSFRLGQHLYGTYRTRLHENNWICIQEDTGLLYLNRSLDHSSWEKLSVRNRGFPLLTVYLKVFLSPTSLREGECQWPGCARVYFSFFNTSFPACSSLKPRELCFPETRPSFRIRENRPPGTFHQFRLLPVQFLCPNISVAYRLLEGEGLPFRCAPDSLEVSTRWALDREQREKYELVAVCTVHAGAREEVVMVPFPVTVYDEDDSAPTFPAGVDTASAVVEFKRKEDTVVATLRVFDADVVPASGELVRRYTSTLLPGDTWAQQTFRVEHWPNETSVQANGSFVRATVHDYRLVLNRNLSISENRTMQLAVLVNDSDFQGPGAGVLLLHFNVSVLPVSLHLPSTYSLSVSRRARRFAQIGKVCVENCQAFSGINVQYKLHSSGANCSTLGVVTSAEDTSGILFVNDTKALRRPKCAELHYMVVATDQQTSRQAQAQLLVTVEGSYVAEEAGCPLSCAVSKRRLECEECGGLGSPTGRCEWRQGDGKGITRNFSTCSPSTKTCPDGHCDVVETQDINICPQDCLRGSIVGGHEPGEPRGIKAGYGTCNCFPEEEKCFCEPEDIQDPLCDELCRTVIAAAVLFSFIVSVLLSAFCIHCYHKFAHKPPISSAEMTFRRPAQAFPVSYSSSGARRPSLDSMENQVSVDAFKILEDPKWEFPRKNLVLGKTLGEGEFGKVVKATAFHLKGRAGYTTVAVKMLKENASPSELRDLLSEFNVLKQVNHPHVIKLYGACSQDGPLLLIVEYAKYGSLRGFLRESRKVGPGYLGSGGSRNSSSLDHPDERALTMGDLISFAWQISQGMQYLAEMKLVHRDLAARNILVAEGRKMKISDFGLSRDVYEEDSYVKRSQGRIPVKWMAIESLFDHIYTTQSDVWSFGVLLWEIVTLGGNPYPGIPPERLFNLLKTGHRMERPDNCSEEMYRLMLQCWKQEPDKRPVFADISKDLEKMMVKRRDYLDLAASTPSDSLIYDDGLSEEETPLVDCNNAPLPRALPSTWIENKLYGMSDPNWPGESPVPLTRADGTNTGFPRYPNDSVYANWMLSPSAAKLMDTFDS

Structure (SMILES): COCCOCCOCCNC(=O)c1c(C)[nH]c(/C=C2\C(=O)Nc3ccc(F)cc32)c1C [mPEG3-semaxanib, (Z)-5-((5-fluoro-2-oxoindolin-3-ylidene)methyl)-2,4-dimethyl-1H-pyrrole-3-mPEG3-amide]
- IC50 (c-Kit): 0.12 µM
- c-Kit AVG % Activity at Specific Concentration (c-Kit; [1]): −1%
- c-Kit AVG % Activity at Specific Concentration (c-Kit; [2]): 2%
- c-Kit AVG % Activity at Specific Concentration (c-Kit; [3]): 58%
- c-Kit AVG % Activity at Specific Concentration (c-Kit; [4]): 97%
- c-Kit AVG % Activity at Specific Concentration (c-Kit; [5]): 104%
- c-Kit AVG % Activity at Specific Concentration (c-Kit; [6]): 100%
- c-Kit AVG % Activity at Specific Concentration (c-Kit; [7]): −1%
- c-Kit AVG % Activity at Specific Concentration (c-Kit; [8]): 1%
- c-Kit AVG % Activity at Specific Concentration (c-Kit; [9]): 16%
- c-Kit AVG % Activity at Specific Concentration (c-Kit; [10]): 88%
- c-Kit AVG % Activity at Specific Concentration (c-Kit; [11]): 98%
- c-Kit AVG % Activity at Specific Concentration (c-Kit; [12]): 102%
- c-Kit Fold (c-Kit): 1.60
- IC50 (RET): 0.23 µM
- RET AVG % Activity at Specific Concentration (RET; [1]): −1%
- RET AVG % Activity at Specific Concentration (RET; [2]): 12%
- RET AVG % Activity at Specific Concentration (RET; [3]): 68%
- RET AVG % Activity at Specific Concentration (RET; [4]): 96%
- RET AVG % Activity at Specific Concentration (RET; [5]): 92%
- RET AVG % Activity at Specific Concentration (RET; [6]): 92%
- RET AVG % Activity at Specific Concentration (RET; [7]): −1%
- RET AVG % Activity at Specific Concentration (RET; [8]): 3%
- RET AVG % Activity at Specific Concentration (RET; [9]): 38%
- RET AVG % Activity at Specific Concentration (RET; [10]): 90%
- RET AVG % Activity at Specific Concentration (RET; [11]): 95%
- RET AVG % Activity at Specific Concentration (RET; [12]): 94%
- RET Fold (RET): 5.35
- IC50 (VEGFR-2): 0.11 µM
- VEGFR-2 AVG % Activity at Specific Concentration (VEGFR-2; [1]): −3%
- VEGFR-2 AVG % Activity at Specific Concentration (VEGFR-2; [2]): 0%
- VEGFR-2 AVG % Activity at Specific Concentration (VEGFR-2; [3]): 47%
- VEGFR-2 AVG % Activity at Specific Concentration (VEGFR-2; [4]): 90%
- VEGFR-2 AVG % Activity at Specific Concentration (VEGFR-2; [5]): 87%
- VEGFR-2 AVG % Activity at Specific Concentration (VEGFR-2; [6]): 93%
- VEGFR-2 AVG % Activity at Specific Concentration (VEGFR-2; [7]): −6%
- VEGFR-2 AVG % Activity at Specific Concentration (VEGFR-2; [8]): −3%
- VEGFR-2 AVG % Activity at Specific Concentration (VEGFR-2; [9]): 16%
- VEGFR-2 AVG % Activity at Specific Concentration (VEGFR-2; [10]): 78%
- VEGFR-2 AVG % Activity at Specific Concentration (VEGFR-2; [11]): 90%
- VEGFR-2 AVG % Activity at Specific Concentration (VEGFR-2; [12]): 93%
- VEGFR-2 Fold (VEGFR-2): 2.24

Structure (SMILES): COCCOCCOCCOCCNC(=O)c1c(C)[nH]c(/C=C2\C(=O)Nc3ccc(F)cc32)c1C [mPEG4-semaxanib, (Z)-5-((5-fluoro-2-oxoindolin-3-ylidene)methyl)-2,4-dimethyl-1H-pyrrole-3-mPEG4-amide]
- IC50 (c-Kit): 0.17 µM
- c-Kit AVG % Activity at Specific Concentration (c-Kit; [1]): −1%
- c-Kit AVG % Activity at Specific Concentration (c-Kit; [2]): 3%
- c-Kit AVG % Activity at Specific Concentration (c-Kit; [3]): 70%
- c-Kit AVG % Activity at Specific Concentration (c-Kit; [4]): 97%
- c-Kit AVG % Activity at Specific Concentration (c-Kit; [5]): 99%
- c-Kit AVG % Activity at Specific Concentration (c-Kit; [6]): 97%
- c-Kit AVG % Activity at Specific Concentration (c-Kit; [7]): −1%
- c-Kit AVG % Activity at Specific Concentration (c-Kit; [8]): −1%
- c-Kit AVG % Activity at Specific Concentration (c-Kit; [9]): 24%
- c-Kit AVG % Activity at Specific Concentration (c-Kit; [10]): 94%
- c-Kit AVG % Activity at Specific Concentration (c-Kit; [11]): 93%
- c-Kit AVG % Activity at Specific Concentration (c-Kit; [12]): 100%
- c-Kit Fold (c-Kit): 2.30
- IC50 (RET): 0.35 µM
- RET AVG % Activity at Specific Concentration (RET; [1]): 0%
- RET AVG % Activity at Specific Concentration (RET; [2]): 22%
- RET AVG % Activity at Specific Concentration (RET; [3]): 78%
- RET AVG % Activity at Specific Concentration (RET; [4]): 99%
- RET AVG % Activity at Specific Concentration (RET; [5]): 89%
- RET AVG % Activity at Specific Concentration (RET; [6]): 100%
- RET AVG % Activity at Specific Concentration (RET; [7]): −1%
- RET AVG % Activity at Specific Concentration (RET; [8]): 5%
- RET AVG % Activity at Specific Concentration (RET; [9]): 52%
- RET AVG % Activity at Specific Concentration (RET; [10]): 95%
- RET AVG % Activity at Specific Concentration (RET; [11]): 100%
- RET AVG % Activity at Specific Concentration (RET; [12]): 99%
- RET Fold (RET): 8.14
- IC50 (VEGFR-2): 0.18 µM
- VEGFR-2 AVG % Activity at Specific Concentration (VEGFR-2; [1]): −4%
- VEGFR-2 AVG % Activity at Specific Concentration (VEGFR-2; [2]): 12%
- VEGFR-2 AVG % Activity at Specific Concentration (VEGFR-2; [3]): 56%
- VEGFR-2 AVG % Activity at Specific Concentration (VEGFR-2; [4]): 88%
- VEGFR-2 AVG % Activity at Specific Concentration (VEGFR-2; [5]): 92%
- VEGFR-2 AVG % Activity at Specific Concentration (VEGFR-2; [6]): 86%
- VEGFR-2 AVG % Activity at Specific Concentration (VEGFR-2; [7]): −6%
- VEGFR-2 AVG % Activity at Specific Concentration (VEGFR-2; [8]): −4%
- VEGFR-2 AVG % Activity at Specific Concentration (VEGFR-2; [9]): 35%
- VEGFR-2 AVG % Activity at Specific Concentration (VEGFR-2; [10]): 89%
- VEGFR-2 AVG % Activity at Specific Concentration (VEGFR-2; [11]): 96%
- VEGFR-2 AVG % Activity at Specific Concentration (VEGFR-2; [12]): 97%
- VEGFR-2 Fold (VEGFR-2): 3.67

Structure (SMILES): COCCOCCOCCOCCOCCNC(=O)c1c(C)[nH]c(/C=C2\C(=O)Nc3ccc(F)cc32)c1C [mPEG5-semaxanib, (Z)-5-((5-fluoro-2-oxoindolin-3-ylidene)methyl)-2,4-dimethyl-1H-pyrrole-3-mPEG5-amide]
- IC50 (c-Kit): 0.23 µM
- c-Kit AVG % Activity at Specific Concentration (c-Kit; [1]): −1%
- c-Kit AVG % Activity at Specific Concentration (c-Kit; [2]): 6%
- c-Kit AVG % Activity at Specific Concentration (c-Kit; [3]): 76%
- c-Kit AVG % Activity at Specific Concentration (c-Kit; [4]): 106%
- c-Kit AVG % Activity at Specific Concentration (c-Kit; [5]): 100%
- c-Kit AVG % Activity at Specific Concentration (c-Kit; [6]): 90%
- c-Kit AVG % Activity at Specific Concentration (c-Kit; [7]): −1%
- c-Kit AVG % Activity at Specific Concentration (c-Kit; [8]): 0%
- c-Kit AVG % Activity at Specific Concentration (c-Kit; [9]): 37%
- c-Kit AVG % Activity at Specific Concentration (c-Kit; [10]): 96%
- c-Kit AVG % Activity at Specific Concentration (c-Kit; [11]): 99%
- c-Kit AVG % Activity at Specific Concentration (c-Kit; [12]): 99%
- c-Kit Fold (c-Kit): 3.10
- IC50 (RET): 0.44 µM
- RET AVG % Activity at Specific Concentration (RET; [1]): 0%
- RET AVG % Activity at Specific Concentration (RET; [2]): 29%
- RET AVG % Activity at Specific Concentration (RET; [3]): 84%
- RET AVG % Activity at Specific Concentration (RET; [4]): 99%
- RET AVG % Activity at Specific Concentration (RET; [5]): 98%
- RET AVG % Activity at Specific Concentration (RET; [6]): 98%
- RET AVG % Activity at Specific Concentration (RET; [7]): −1%
- RET AVG % Activity at Specific Concentration (RET; [8]): 6%
- RET AVG % Activity at Specific Concentration (RET; [9]): 59%
- RET AVG % Activity at Specific Concentration (RET; [10]): 95%
- RET AVG % Activity at Specific Concentration (RET; [11]): 102%
- RET AVG % Activity at Specific Concentration (RET; [12]): 99%
- RET Fold (RET): 10.23

Structure (SMILES): COCCOCCOCCOCCOCCOCCNC(=O)c1c(C)[nH]c(/C=C2\C(=O)Nc3ccc(F)cc32)c1C [mPEG6-semaxanib, (Z)-5-((5-fluoro-2-oxoindolin-3-ylidene)methyl)-2,4-dimethyl-1H-pyrrole-3-mPEG6-amide]
- IC50 (c-Kit): 0.29 µM
- c-Kit AVG % Activity at Specific Concentration (c-Kit; [1]): −1%
- c-Kit AVG % Activity at Specific Concentration (c-Kit; [2]): 8%
- c-Kit AVG % Activity at Specific Concentration (c-Kit; [3]): 79%
- c-Kit AVG % Activity at Specific Concentration (c-Kit; [4]): 94%
- c-Kit AVG % Activity at Specific Concentration (c-Kit; [5]): 97%
- c-Kit AVG % Activity at Specific Concentration (c-Kit; [6]): 91%
- c-Kit AVG % Activity at Specific Concentration (c-Kit; [7]): −1%
- c-Kit AVG % Activity at Specific Concentration (c-Kit; [8]): 0%
- c-Kit AVG % Activity at Specific Concentration (c-Kit; [9]): 44%
- c-Kit AVG % Activity at Specific Concentration (c-Kit; [10]): 95%
- c-Kit AVG % Activity at Specific Concentration (c-Kit; [11]): 99%
- c-Kit AVG % Activity at Specific Concentration (c-Kit; [12]): 87%
- c-Kit Fold (c-Kit): 3.90
- VEGFR-2 AVG % Activity at Specific Concentration (VEGFR-2): 96% and 93%
